Test results taken from patent publication US4717727A, “Esters of pyridine-2,4- and 2,5-dicarboxylic acid as medicaments for the inhibition of proline hydroxylase and lysine hydroxylase” (Hoechst Aktiengesellschaft, priority 1984, dated 1988).

Columns and labels:
[1] = test system: Clq biosynthesis by macrophages; conditions: cited from earlier work
proline hydroxylase [2] = assay: Inhibition of collagen proline hydroxylation in organ culture (isolated calvariae / EHS sarcoma tissue), ratio of 14C-proline to 14C-hydroxyproline; assay type: cell-based; conditions: Inhibition 50 %; incubation with 14C-proline, ratio 14C-proline to 14C-hydroxyproline in extracted collagen; read-out: Conc. giving the stated Inhibition, % (50)
Protocol: Determination of the inhibitory effect is described below.
(a) Tissue of the EHS sarcoma tumor, which produces an extracellular matrix resembling basal membrane and produces, in particular, type IV collagen (Erkin et al., Exp. Med. 145 (1977) 204-220), is incubated in analogy to the method of K. Tryggvason et al. (Biochemistry 19 (1980) 1248-1289) in the presence of ^14 C-proline and of inhibitors in various concentrations. After the incubation has been stopped, the tissue is homogenized and extracted with dilute acetic acid. After NaCl precipitation, the extracted collagen was hydrolyzed with 6 M HCl, and the ratio of ^14 C-proline to ^14 C-hydroxyproline was determined.
(b) Isolated calvariae are incubated in analogy to the method of B. Peterkovsky and R. DiBlasio (Anal. Biochem. 66 (1975) 279-286) in the presence of U-^14 C-proline and inhibitors. After the incubation has been stopped, the calvariae are homogenized, and the collagen is extracted with dilute acetic acid. After hydrolysis of the extract with 6 M HCl, the ratio of ^14 C-proline to ^14 C-hydroxyproline is determined.

proline hydroxylase [3] = target: T1, proline hydroxylase (Gallus gallus, UniProt P16924); conditions: cited from earlier work
T1 sequence (P16924 1-516): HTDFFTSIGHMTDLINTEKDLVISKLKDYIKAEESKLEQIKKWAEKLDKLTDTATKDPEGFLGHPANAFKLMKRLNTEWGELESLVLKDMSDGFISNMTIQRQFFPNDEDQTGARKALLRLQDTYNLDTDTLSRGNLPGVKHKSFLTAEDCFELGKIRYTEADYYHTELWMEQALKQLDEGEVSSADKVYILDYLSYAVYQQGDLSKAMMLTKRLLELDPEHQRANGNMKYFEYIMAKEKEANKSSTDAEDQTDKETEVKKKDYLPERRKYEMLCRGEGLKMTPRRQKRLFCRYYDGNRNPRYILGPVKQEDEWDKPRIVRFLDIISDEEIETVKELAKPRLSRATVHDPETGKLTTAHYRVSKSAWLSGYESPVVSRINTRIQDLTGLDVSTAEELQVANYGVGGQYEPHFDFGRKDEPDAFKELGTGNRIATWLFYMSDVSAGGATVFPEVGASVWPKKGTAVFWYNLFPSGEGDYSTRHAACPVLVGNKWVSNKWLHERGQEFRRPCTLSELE
T1 sequence (P09102 23-515 partner): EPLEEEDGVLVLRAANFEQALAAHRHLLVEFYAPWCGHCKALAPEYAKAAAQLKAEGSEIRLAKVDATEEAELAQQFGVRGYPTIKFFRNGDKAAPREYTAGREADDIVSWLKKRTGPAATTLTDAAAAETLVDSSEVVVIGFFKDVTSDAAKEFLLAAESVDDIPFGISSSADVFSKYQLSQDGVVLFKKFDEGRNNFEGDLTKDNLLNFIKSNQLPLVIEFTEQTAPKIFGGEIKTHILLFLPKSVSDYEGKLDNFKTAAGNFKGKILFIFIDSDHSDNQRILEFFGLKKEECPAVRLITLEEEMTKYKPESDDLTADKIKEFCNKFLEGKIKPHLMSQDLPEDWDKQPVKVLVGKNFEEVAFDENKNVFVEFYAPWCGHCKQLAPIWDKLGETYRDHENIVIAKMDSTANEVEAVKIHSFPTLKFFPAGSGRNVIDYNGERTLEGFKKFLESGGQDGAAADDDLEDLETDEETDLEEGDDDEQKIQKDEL

[4] = test system: collagen biosynthesis in cell culture; conditions: cited from earlier work

Compound | inhibition of Clq biosynthesis by macrophages [1] | IC50 (proline hydroxylase [2]) | inhibition of proline hydroxylase (proline hydroxylase [3]) | inhibitory effectiveness in cell culture [4]
c1ccc(-c2ccccn2)nc1 [α,α'-dipyridyl] | leads to inhibition of Clq biosynthesis |  |  | 
CCOC(=O)c1ccc(C(=O)OCC)nc1 [C2 H5 5] |  | 90 µM |  | 
O=C(O)c1ccnc(C(=O)O)c1 [H 4] |  | 670 µM | effectively inhibited | effective inhibitors only in very high concentrations
O=C(O)c1ccc(C(=O)O)nc1 [H 5] |  | 2100 µM | effectively inhibited | effective inhibitors only in very high concentrations
CCOC(=O)c1ccnc(C(=O)OCC)c1 [C2 H5 4] |  | 3 µM |  | 
